Assay results taken from US6743618B2, “Thermostable proteolytic enzymes and uses thereof in peptide and protein synthesis” (University of Florida Research Foundation, Inc., priority 1996, dated 2004).
Non-standard residues stand in square brackets, D forms with d. Residues, ends and D or L forms follow the SMILES beside them. *: point of attachment. pNA = O=[N+]([O-])c1ccc(N*)cc1; Cbz = O=C(OCc1ccccc1)*; Bz = O=C(c1ccccc1)*

How the values were obtained:
P. furiosus protease [1] = target: T1, P. furiosus protease (Pyrococcus furiosus, UniProt Q8U3Y3); assay: Activation enthalpy and entropy from Arrhenius plots of initial velocities; format: biochemical
Protocol: For all kinetic experiments at high temperatures, sodium phosphate (0.025 M) was used as a buffer.
To explore the basis for the extremely large increases in enzyme activity with temperature, initial velocity (vo) measurements were made at 6 different substrate concentrations in order to determine kcat and Km at a series of temperatures in the range of 25.0 to 83.5° C. Temperature was controlled to within ±0.5° C. with a large water bath and jacketed cuvettes. Two substrates were used for these experiments—BAPNA and D-pro-phe-arg-pNA(PPANA).
Within the temperature range accessible to mesophilic enzymes, such plots are linear. […] The data was fitted to a second degree polynomial and the slopes determined as a function of temperature to compute Arrhenius activation energies. These values were used to compute activation enthalpy (ΔH*) and entrophy (ΔS*) as a function of temperature (Eyring, H. (1963) Modern Chemical Kinetics, Rheinhold, N.Y.).

trypsin = assay: BAPNA hydrolysis by trypsin (comparison); format: biochemical; details: BAPNA as substrate, same conditions (25.0 °C)
P. furiosus protease [2] = target: T1, P. furiosus protease; assay: Hydrolysis kinetics of synthetic peptide and ester substrates (progress curve / initial velocity analysis); format: biochemical; details: for Ki: read-out: Ki (product inhibition constant)
Description: (§1) The hydrolysis kinetics of various synthetic peptide and ester protease substrates were studied. Two different methods have been used to analyze the kinetic properties of the enzyme. The first utilized initial velocity data at several substrate concentrations with analysis by plotting s/v νs s (Hanes plot). This method was always used when it was possible that the protease could cleave at more than one site (e.g., PPANA). The second method utilizes all data of the progress curve of the reaction. Progess curves were analyzed in two ways:
(§2) Instantaneous point by point derivatives were calculated from the absorbance νs time data by fitting 10 points spaced 1 second apart by least squares to a second degree polynomial. Derivatives were computed analytically and were used to construct plots of v νs s, which were then analyzed by non-linear regression to obtain Km, kcat and any product inhibition constant (Ki) if it exists. […] For all measurements at elevated temperature, the first-order rate constants for non-enzymic hydrolysis were determined for all substrates. The analytic method described here was used both for reactions at 25.0° C. and 80.0° C.
(§3) For these analyses, the integrated Michaelis-Menten equation was used, but not in linearized form, for reasons relating to product inhibition. Plots of time (now the dependent variable) νs absorbance were constructed from the raw data and analyzed by non-linear regression. […] This method was used for analyses at 25.0° C. only.
(§4) All kinetic studies utilized a Cary 3E double beam spectrophotometer and absorbance νs time data were collected by computer at 1 second intervals. In cases where a peptide substrate could potentially be cleaved at more than one site, thin-layer chromatography was used to establish the products formed (silica gel; butanol:acetone:NH4OH:water—37:37:19:7).
(§5) All of the above are mean values from at least 4 separate experiments. Except for PPANA, values are means of v νs s and integrated rate equation analyses. PPANA values were obtained from initial velocity measurements, analyzed by the Hanes equation. Solvent: 0.025 M Na Phosphate, pH 7.0. […] N. D. means not determined.

P. furiosus protease [3] = target: T1, P. furiosus protease; assay: Active site inhibitor studies, BAPNA as substrate; format: biochemical
Description: (§6) To assign the class of protease to which the P. furiosus protease belongs, several reagents were used to identify catalytically important residues.
b. […] This reagent reacts rapidly and specifically with the active site histidine residue of the active site triad: ser-his-asp (Shaw, E. “Site-Specific Reagents for Chymotrypsin and Trypsin.” […]. 11:677-686, 1967).

[4] = tested on: Pyrococcus furiosus serine protease, native, about 81 kDa, N-terminus SEQ ID NO: 1; assay: Active site inhibitor studies (BAPNA as substrate); format: biochemical; details: 10^−3 M, incubation for 24 hr
Protocol: as §6
a. Incubation of the enzyme with 10^−3 M EDTA for 24 hr had no effect upon enzyme activity.
b. One of the active-site inhibitors of mesophilic serine proteases is phe-pro-argCH2Cl. This reagent reacts rapidly and specifically with the active site histidine residue of the active site triad: ser-his-asp (Shaw, E. “Site-Specific Reagents for Chymotrypsin and Trypsin.” […]. 11:677-686, 1967).

[5] = tested on: Pyrococcus furiosus serine protease (carboxypeptidase/endopeptidase), native, about 81 kDa, N-terminus SEQ ID NO: 1; assay: Kinetic studies and substrate specificity (hydrolysis of synthetic peptide and ester substrates; progress curves, Hanes plot); format: biochemical; details: for Km / kcat: 0.025 M Na phosphate, pH 7.0, mean of at least 4 experiments (PPANA: initial velocities, Hanes equation); for product inhibition, Ki compared with Km / hydrolysis by the protease: in words; for hydrolysis by the protease: at up to 80° C. for arg-pNA (TLC), Table 3 lists HA and ZGP at 25.0° C.
Description: as §1, §2
b. Integrated Rate Equation Analyses: t νs Absorbance
as §3
Subroutines for the above analyses were written to analyze the kinetic data for: product competitive inhibition, non-competitive inhibition, 2-product inhibition, and simple Michaelis-Menten kinetics. An HP 9000 series work station was used for this purpose, using HP BASIC.
as §4, §5

[6] = pK values used to calculate theoretical yield; format: physicochemical; details: for pK1: carboxyl reactant; for pK2: amine nucleophile
Protocol: Yield is defined as the ratio of product concentration to the initial concentration of the carboxyl reactant (in percent). Theoretical yield was calculated from equations 1, 2 and 3 together with pK1=3.81 (ZGL) and 4.47 (ZGE); pK2=7.93 (leu-NH2) and 7.51 (arg-NH2).

P. furiosus protease [7] = target: T1, P. furiosus protease; assay: Product inhibition: initial rate measurements of BAPNA with varying product concentrations; format: biochemical
[8] = tested on: serine protease of the subject invention; assay: Digestion of insulin B-chain, products by TLC; format: biochemical, Pyrococcus furiosus; details: 80° C., phosphate buffer, pH 7.0, 1 hour
Protocol: Treatment of the insulin B-chain with the serine protease of the subject invention (80° C., phosphate buffer, pH 7.0) for 1 hour yields 5 ninhydrin-positive components by TLC. No non-enzyme hydrolysis of substrate was detected after this time period. One of the new components is alanine which the carboxy terminus of the B-chain. None of the others is a free amino acid. These studies with insulin provide further evidence that the enzyme is an endopeptidase.

[9] = 25.0 °C, 0.025 M Na phosphate, pH 7.0, total progress curve analyses
[10] = 25.0 °C, BAPNA substrate, sodium phosphate 0.025 M pH 7.0, iodoacetamide 100-fold molar excess

T1 sequence (Q8U3Y3 entry or part of it): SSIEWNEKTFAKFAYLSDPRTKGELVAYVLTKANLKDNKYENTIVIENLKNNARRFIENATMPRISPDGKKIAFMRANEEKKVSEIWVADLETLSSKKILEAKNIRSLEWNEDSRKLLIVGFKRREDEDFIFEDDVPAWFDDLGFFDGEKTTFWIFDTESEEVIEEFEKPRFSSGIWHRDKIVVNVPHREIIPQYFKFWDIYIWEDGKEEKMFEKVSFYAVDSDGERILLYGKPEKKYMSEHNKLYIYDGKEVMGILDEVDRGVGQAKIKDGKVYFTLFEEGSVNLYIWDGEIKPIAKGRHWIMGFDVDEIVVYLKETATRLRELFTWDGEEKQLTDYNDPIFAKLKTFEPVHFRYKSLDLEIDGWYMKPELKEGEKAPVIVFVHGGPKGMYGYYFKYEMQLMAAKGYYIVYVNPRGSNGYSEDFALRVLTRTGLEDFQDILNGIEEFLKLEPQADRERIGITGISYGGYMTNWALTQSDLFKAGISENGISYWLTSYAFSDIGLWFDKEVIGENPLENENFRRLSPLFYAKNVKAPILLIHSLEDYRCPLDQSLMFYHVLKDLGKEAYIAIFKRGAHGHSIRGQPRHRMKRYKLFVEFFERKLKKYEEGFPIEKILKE

N=C(N)NCCC[C@H](NC(=O)c1ccccc1)C(=O)Nc1ccc([N+](=O)[O-])cc1 [BAPNA, N-benzoyl-L-arginine-p-nitroanilide]
ΔH* (activation enthalpy) (P. furiosus protease [1]; 25.0 °C): 17.2 kcal/mol
ΔS* (activation entropy) (P. furiosus protease [1]; 25.0 °C): 2.2 e.u
ΔH* (activation enthalpy) (P. furiosus protease [1]; 80.0 °C): 3.1 kcal/mol
ΔS* (activation entropy) (P. furiosus protease [1]; 80.0 °C): −41.7 e.u
kcat (trypsin): 2.7 s⁻¹
Ki compared with Km (P. furiosus protease [2]; 25.0 °C): Ki<Km
Ki times less than Km (P. furiosus protease [2]; 25.0 °C, Table 3): 10
Ki (P. furiosus protease [2]; [9]): 70.8 µM
kcat at 80° C. relative to 25° C. (times greater) (P. furiosus protease [2]; 80 °C vs 25 °C): 65
Ki (P. furiosus protease [2]; 80.0 °C, 0.025 M Na phosphate, pH 7.0, progress curve analysis): 220 µM

CCOC(=O)[C@H](Cc1ccc(O)cc1)NC(=O)c1ccccc1 [BTEE, benzoyl-tyrosine ethyl ester]
Ki (P. furiosus protease [2]; [9]): 5600 µM

O=C(O)CN(CCN(CC(=O)O)CC(=O)O)CC(=O)O [EDTA]
effect upon enzyme activity (P. furiosus protease [3]): no effect
effect upon enzyme activity [4]: no effect

C[C@H](NC(=O)/C=C/c1ccco1)C(=O)N[C@@H](Cc1ccccc1)C(N)=O [FAAPA, furyl-acryloyl-ala-phe-amide]
Km ([5]; 25.0° C.): 38.6 µM
kcat ([5]; 25.0° C.): 7.31 s⁻¹
product inhibition, Ki compared with Km [5]: Ki<Km

CC(C)C[C@H](NC(=O)CNC(=O)/C=C/c1ccco1)C(N)=O [FAGLA, furyl-acryloyl-glycyl-leucine amide]
Ki compared with Km (P. furiosus protease [2]; 25.0 °C): Ki<Km
product inhibition (P. furiosus protease [2]; 25.0 °C): intense product inhibition
Km (P. furiosus protease [2]; 25.0 °C, 0.025 M Na phosphate, pH 7.0, PPANA from initial velocities (Hanes)): 6.08 µM
kcat (P. furiosus protease [2]; 25.0 °C, 0.025 M Na phosphate, pH 7.0, means of at least 4 experiments, PPANA from initial velocities (Hanes)): 0.67 s⁻¹

O=C(O)CNC(=O)CNC(=O)[C@H](Cc1ccccc1)NC(=O)/C=C/c1ccco1 [FAPGG, furyl-acryloyl-phe-gly-gly]
Km ([5]; 25.0° C.): 415 µM
kcat ([5]; 25.0° C.): 10.64 s⁻¹
product inhibition, Ki compared with Km [5]: No product inhibition is observed

O=C(/C=C/c1ccco1)N[C@@H](Cc1ccccc1)C(=O)N[C@@H](Cc1ccccc1)C(=O)O [FAPP, furyl-acryloyl-phe-phe]
Km ([5]; 25.0° C.): 375 µM
kcat ([5]; 25.0° C.): 4.58 s⁻¹
product inhibition, Ki compared with Km [5]: product inhibition is not observed

N=C(N)NCCC[C@H](NC(=O)CNC(=O)c1ccccc1)C(=O)O [HA, hippuryl-arginine] (Bz-Gly-Arg-OH)
hydrolysis by the protease [5]: Remain Unaltered by the Enzyme
hydrolysis by the enzyme (P. furiosus protease [2]; 25.0 °C): Remain Unaltered

O=S(=O)(F)Cc1ccccc1 [PMSF, phenyl-methyl-sulfonyl fluoride]
inhibition of enzyme activity (P. furiosus protease [3]; 8×10^3 molar excess over enzyme, BAPNA substrate, 25.0 °C): complete inhibition

N=C(N)NCCC[C@H](NC(=O)[C@H](Cc1ccccc1)NC(=O)[C@H]1CCCN1)C(=O)Nc1ccc([N+](=O)[O-])cc1 [PPANA, D-pro-phe-arg-pNA] (H-[dP]-Phe-Arg-pNA)
ΔH* (activation enthalpy) (P. furiosus protease [1]; 25.0 °C): 26.1 kcal/mol
ΔS* (activation entropy) (P. furiosus protease [1]; 25.0 °C): 23.8 e.u
ΔH* (activation enthalpy) (P. furiosus protease [1]; 80.0 °C): 15.4 kcal/mol
ΔS* (activation entropy) (P. furiosus protease [1]; 80.0 °C): −9.0 e.u
Km ([5]; 25.0° C.): 477 µM
kcat ([5]; 25.0° C.): .045 s⁻¹
Km ([5]; 80.0° C.): 499 µM
kcat ([5]; 80.0° C.): 5.44 s⁻¹
kcat ratio 80° C./25° C. ([5]; kcat at 80° C. vs 25° C.): 120 times

O=C(O)CC[C@H](NC(=O)CNC(=O)OCc1ccccc1)C(=O)O [ZGE, Z-gly-glu] (Cbz-Gly-Glu-OH)
pK1 [6]: 4.47

CC(C)CC(NC(=O)CNC(=O)OCc1ccccc1)C(=O)O (centres unmarked) [ZGL, Z-gly-leu]
pK1 [6]: 3.81

O=C(CNC(=O)OCc1ccccc1)N[C@@H](Cc1ccccc1)C(=O)O [ZGP, carbobenzoxy-gly-phe] (Cbz-Gly-Phe-OH)
hydrolysis by the protease [5]: Remain Unaltered by the Enzyme
hydrolysis by the enzyme (P. furiosus protease [2]; 25.0 °C): Remain Unaltered

CC(NC(=O)C(Cc1ccccc1)NC(=O)OCc1ccccc1)C(=O)O (centres unmarked) [ZPA, carbobenzoxy-phe-ala]
Ki compared with Km (P. furiosus protease [2]; 25.0 °C): Ki<Km
Ki (P. furiosus protease [2]; [9]): 134 µM

NC(=O)[C@@H](N)CCCN=C(N)N [arg-NH2]
pK2 [6]: 7.51

N=C(N)NCCC[C@H](N)C(=O)Nc1ccc([N+](=O)[O-])cc1 [arg-pNA]
hydrolysis by the protease [5]: does not hydrolyze arg-pNA at all, even at 80 °C
hydrolysis by the protease (TLC) (P. furiosus protease [2]; even at 80° C.): does not hydrolyze

N=C(N)NCCC[C@H](NC(=O)c1ccccc1)C(=O)O [benzoyl-L-arginine]
Ki (P. furiosus protease [7]; initial rate measurements of BAPNA with varying product concentration, read-out: Ki (inhibition constant of added product)): 65 µM
Ki (P. furiosus protease [2]; [9]): 70.8 µM

O=C(O)c1cc(SSc2ccc([N+](=O)[O-])c(C(=O)O)c2)ccc1[N+](=O)[O-] [bisdithiodintrobenzene]
effect upon the activity of the enzyme (P. furiosus protease [3]; [10]): no effect whatsoever

NC(=O)CI [iodoacetamide]
effect upon the activity of the enzyme (P. furiosus protease [3]; [10]): no effect whatsoever

CC(C)C[C@H](N)C(N)=O [leu-NH2]
pK2 [6]: 7.93

Nc1ccc([N+](=O)[O-])cc1 [p-nitroaniline]
inhibition by added product (P. furiosus protease [7]; concentrations as high as 5×10^−4 M, initial rates of BAPNA): no detectable inhibition

N=C(N)NCCC[C@H](NC(=O)[C@@H]1CCCN1C(=O)[C@H](N)Cc1ccccc1)C(=O)CCl [phe-pro-argCH2Cl]
pseudo first order inactivation rate constant (P. furiosus protease [3]; inhibitor 1.98×10^−6 M, BAPNA 3.8×10^−4 M, 25.0 °C): 0.022 s⁻¹

O=P(O)(O)O [sodium phosphate]
effect upon the activity of the enzyme (P. furiosus protease [3]; pH 7): no effect whatsoever

insulin B-chain: insulin B-chain, used as a substrate; its carboxy terminus is alanine
ninhydrin-positive components by TLC [8]: 5
